Experimental findings from patent US8309586B2, “Glucokinase activators and pharmaceutical compositions containing the same as an active ingredient” (LG Life Sciences Ltd., priority 2007, dated 2012) are described below.

The assay has as its system Glucokinase known as hexokinase IV (human GK isoform 1, pancreas form and human GK isoform 2, liver form). The assay is described as follows: Glucokinase enzymatic activity assay (G6PDH-coupled, NADH absorbance at 340 nm). The assay is classed as biochemical. The note with it: 5 mM glucose, 1 mM ATP, 37 nM GK, 10 min at room temperature. An outline of the steps:
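His-tagged human GK isoform 1 (pancreas) or 2 (liver), E. coli-expressed and Ni-purified, 37 nM, with 5 mM glucose, 1 mM ATP, 1 mM NAD and G6PDH in 25 mM Hepes/KCl, 2 mM MgCl2, 1 mM DTT. Ran 10 min at room temperature, read as NADH at 340 nm. AC1.5 is the compound concentration giving 1.5-fold activity.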

As for `O=C(CO)N1CCN(CC[C@@H]2CSC(c3cc4cc(F)cc(NC5CCCC5)c4[nH]3)=N2)CC1` [Example 131, 1-(4-{2-[(R)-2-(7-cyclopentylamino-5-fluoro-1H-indol-2-yl)-4,5-dihydro-thiazol-4-yl]-ethyl}-piperazin-1-yl)-2-hydroxy-ethanone], the “AC1.5 (the compound concentration at which the enzymatic activity is increased by 1.5 times)” value came to 10 nM.

As to `CC(=O)N1CCN(CC[C@@H]2CSC(c3cc4cccc(Oc5ccccc5)c4[nH]3)=N2)CC1` [Example 175, 1-(4-{2-[(R)-2-(7-phenoxy-1H-indol-2-yl)-4,5-dihydro-thiazol-4-yl]-ethyl}-piperazin-1-yl)-ethanone], the “AC1.5 (the compound concentration at which the enzymatic activity is increased by 1.5 times)” value stood at 71 nM.

Consider `OC[C@@H]1CSC(c2cc3cc(Br)cc(NC4CCCC4)c3[nH]2)=N1` [Example 10, [(R)-2-(5-bromo-7-cyclopentylamino-1H-indol-2-yl)-4,5-dihydro-thiazol-4-yl]-methanol], for which the “AC1.5 (the compound concentration at which the enzymatic activity is increased by 1.5 times)” value stood at 6 nM.

On to `O=C(O)C[C@@H]1CSC(c2cc3cc(Oc4cccnc4)cc(NC4CCCC4)c3[nH]2)=N1` [Example 57, {(R)-2-[7-cyclopentylamino-5-(pyridin-3-yloxy)-1H-indol-2-yl]-4,5-dihydro-thiazol-4-yl}-acetic acid], for which the “AC1.5 (the compound concentration at which the enzymatic activity is increased by 1.5 times)” value is on record as 21 nM. As for `CS(=O)(=O)CC[C@@H]1CSC(c2cc3cc(F)cc(NC4CCOCC4)c3[nH]2)=N1` [Example 138, (5-fluoro-2-[(R)-4-(2-methanesulfonyl-ethyl)-4,5-dihydro-thiazol-2-yl]-1H-indol-7-yl)-(tetrahydro-pyran-4-yl)-amine], the “AC1.5 (the compound concentration at which the enzymatic activity is increased by 1.5 times)” value is recorded as 36 nM. Consider `CN1CCN(C(=O)CC[C@@H]2CSC(c3cc4cc(Cl)cc(NC5CCCC5)c4[nH]3)=N2)CC1` [Example 154, 3-[(R)-2-(5-chloro-7-cyclopentylamino-1H-indol-2-yl)-4,5-dihydro-thiazol-4-yl]-1-(4-methyl-piperazin-1-yl)-propan-1-one], for which the “AC1.5 (the compound concentration at which the enzymatic activity is increased by 1.5 times)” value is reported as 14 nM. On to `O=C(O)C[C@@H]1CSC(c2cc3cc(Oc4cccnc4)cc(NC4CCOCC4)c3[nH]2)=N1` [Example 59, {(R)-2-[5-(pyridin-3-yloxy)-7-(tetrahydro-pyran-4-ylamino)-1H-indol-2-yl]-4,5-dihydro-thiazol-4-yl}-acetic acid], for which the “AC1.5 (the compound concentration at which the enzymatic activity is increased by 1.5 times)” value was found to be 28 nM.

For `O=C(O)COC[C@@H]1CSC(c2cc3cc(F)cc(NC4CCCC4)c3[nH]2)=N1` [Example 171, [(R)-2-(7-cyclopentylamino-5-fluoro-1H-indol-2-yl)-4,5-dihydro-thiazol-4-ylmethoxy]-acetic acid], the “AC1.5 (the compound concentration at which the enzymatic activity is increased by 1.5 times)” value is 23 nM.

For `c1cc(NC2CCCC2)c2[nH]c(C3=N[C@H](Cc4nc(N5CCCCC5)no4)CS3)cc2c1` [Example 173, cyclopentyl-{2-[(R)-4-(3-piperidin-1-yl-[1,2,4]oxadiazol-5-ylmethyl)-4,5-dihydro-thiazol-2-yl]-1H-indol-7-yl}-amine], the “AC1.5 (the compound concentration at which the enzymatic activity is increased by 1.5 times)” value is 114 nM.

For the compound `COC(=O)C[C@@H]1CSC(c2cc3cc(OC)cc(NC4CCOCC4)c3[nH]2)=N1` [Example 50, {(R)-2-[5-methoxy-7-(tetrahydro-pyran-4-ylamino)-1H-indol-2-yl]-4,5-dihydro-thiazol-4-yl}-acetic acid methyl ester], the “AC1.5 (the compound concentration at which the enzymatic activity is increased by 1.5 times)” value is listed as 28 nM. As for `CN(C)C1CCN(CC[C@@H]2CSC(c3cc4cc(Cl)cc(NC5CCCC5)c4[nH]3)=N2)C1` (stereo partly drawn) [Example 103, (5-chloro-2-{(R)-4-[2-(3-dimethylamino-pyrrolidin-1-yl)-ethyl]-4,5-dihydro-thiazol-2-yl}-1H-indol-7-yl)-cyclopentyl-amine], the figure is 16 nM; as for `OC[C@@H]1CSC(c2cc3cc(Cn4cccn4)cc(NC4CCCC4)c3[nH]2)=N1` [Example 21, [(R)-2-[7-cyclopentylamino-5-pyrazol-1-ylmethyl-1H-indol-2-yl]-4,5-dihydro-thiazol-4-yl}-methanol], 16 nM; as for `CCOC(=O)CC[C@@H]1CSC(c2cc3cc(Br)cc(NC4CCCC4)c3[nH]2)=N1` [Example 162, 3-[(R)-2-(5-bromo-7-cyclopentylamino-1H-indol-2-yl)-4,5-dihydro-thiazol-4-yl]-propionic acid ethyl ester], 21 nM. Turning to `COc1cc(NC2CCCC2)c2[nH]c(C3=N[C@H](CCC(=O)O)CS3)cc2c1` [Example 165, 3-[(R)-2-(7-cyclopentylamino-5-methoxy-1H-indol-2-yl)-4,5-dihydro-thiazol-4-yl]-propionic acid], the “AC1.5 (the compound concentration at which the enzymatic activity is increased by 1.5 times)” value was found to be 12 nM. In the case of `CN1CCN(CC[C@@H]2CSC(c3cc4cc(Cl)cc(NC5CCCC5)c4[nH]3)=N2)CC1` [Example 100, (5-chloro-2-{(R)-4-[2-(4-methyl-piperazin-1-yl)-ethyl]-4,5-dihydro-thiazol-2-yl}-1H-indol-7-yl)-cyclopentyl-amine], the “AC1.5 (the compound concentration at which the enzymatic activity is increased by 1.5 times)” value worked out at 11 nM. Take `O=C(C[C@@H]1CSC(c2cc3cc(Cl)cc(NC4CCCC4)c3[nH]2)=N1)N1CCOCC1` [Example 73, 2-[(R)-2-(5-chloro-7-cyclopentylamino-1H-indol-2-yl)-4,5-dihydro-thiazol-4-yl]-1-morpholin-4-yl-ethanone]: the “AC1.5 (the compound concentration at which the enzymatic activity is increased by 1.5 times)” value is recorded as 25 nM.

Regarding `COc1cc(NC2CCCC2)c2[nH]c(C3=N[C@H](CC(=O)N4CCOCC4)CS3)cc2c1` [Example 88, 2-[(R)-2-(7-cyclopentylamino-5-methoxy-1H-indol-2-yl)-4,5-dihydro-thiazol-4-yl]-1-morpholin-4-yl-ethanone], the “AC1.5 (the compound concentration at which the enzymatic activity is increased by 1.5 times)” value amounted to 19 nM.

Consider `COC(=O)C[C@@H]1CSC(c2cc3cc(COc4ccccc4)cc(NC4CCCC4)c3[nH]2)=N1` [Example 65, [(R)-2-(7-cyclopentylamino-5-phenoxymethyl-1H-indol-2-yl)-4,5-dihydro-thiazol-4-yl]-acetic acid methyl ester], for which the “AC1.5 (the compound concentration at which the enzymatic activity is increased by 1.5 times)” value was determined as 23 nM. Turning to `CCOC(=O)CC[C@@H]1CSC(c2cc3cc(F)cc(NC4CCCC4)c3[nH]2)=N1` [Example 160, 3-[(R)-2-(7-cyclopentylamino-5-fluoro-1H-indol-2-yl)-4,5-dihydro-thiazol-4-yl]-propionic acid ethyl ester], the “AC1.5 (the compound concentration at which the enzymatic activity is increased by 1.5 times)” value came to 12 nM.

In the case of `OC[C@@H]1CSC(c2cc3cc(Cl)cc(NC4CCSCC4)c3[nH]2)=N1` [Example 9, {(R)-2-[5-chloro-7-(tetrahydro-thiopyran-4-ylamino)-1H-indol-2-yl]-4,5-dihydro-thiazol-4-yl}-methanol], the “AC1.5 (the compound concentration at which the enzymatic activity is increased by 1.5 times)” value was 24 nM. With `CCOC(=O)CC[C@@H]1CSC(c2cc3cc(C)cc(NC4CCCC4)c3[nH]2)=N1` [Example 157, 3-[(R)-2-(7-cyclopentylamino-5-methyl-1H-indol-2-yl)-4,5-dihydro-thiazol-4-yl]-propionic acid ethyl ester], the “AC1.5 (the compound concentration at which the enzymatic activity is increased by 1.5 times)” value stood at 24 nM.

Turning to `COC(=O)C[C@@H]1CSC(c2cc3cc(Oc4cccnc4)cc(NC4CCOCC4)c3[nH]2)=N1` [Example 58, {(R)-2-[5-(pyridin-3-yloxy)-7-(tetrahydro-pyran-4-ylamino)-1H-indol-2-yl]-4,5-dihydro-thiazol-4-yl}-acetic acid methyl ester], the “AC1.5 (the compound concentration at which the enzymatic activity is increased by 1.5 times)” value amounted to 14 nM. For `O=C(O)C1CCCN(CC[C@@H]2CSC(c3cc4cc(Cl)cc(NC5CCOCC5)c4[nH]3)=N2)C1` (stereo partly drawn) [Example 112, 1-(2-{(R)-2-[5-chloro-7-(tetrahydro-pyran-4-ylamino)-1H-indol-2-yl]-4,5-dihydro-thiazol-4-yl}-ethyl)-piperidine-3-carboxylic acid], the “AC1.5 (the compound concentration at which the enzymatic activity is increased by 1.5 times)” value came out at 81 nM. As for `CS(=O)(=O)Cc1cc(NC2CCCC2)c2[nH]c(C3=N[C@H](CCO)CS3)cc2c1` [Example 70, 2-[(R)-2-(7-cyclopentylamino-5-methanesulfonylmethyl-1H-indol-2-yl)-4,5-dihydro-thiazol-4-yl]-ethanol], the figure is 32 nM; as for `OC[C@@H]1CSC(c2cc3cc(Cc4cc[nH]c4)cc(NC4CCCC4)c3[nH]2)=N1` [Example 23, {(R)-2-[7-cyclopentylamino-5-(1H-pyrrol-3-ylmethyl)-1H-indol-2-yl]-4,5-dihydro-thiazol-4-yl}-methanol], 19 nM. As to `CNC(=O)C[C@@H]1CSC(c2cc3cc(Cl)cc(NC4CCCC4)c3[nH]2)=N1` [Example 76, 2-[(R)-2-(5-chloro-7-cyclopentylamino-1H-indol-2-yl)-4,5-dihydro-thiazol-4-yl]-N-methyl-acetamide], the “AC1.5 (the compound concentration at which the enzymatic activity is increased by 1.5 times)” value is given as 14 nM. Consider `OC[C@@H]1CSC(c2cc3cc(F)cc(NC4CCCC4)c3[nH]2)=N1` [Example 5, [(R)-2-(7-cyclopentylamino-5-fluoro-1H-indol-2-yl)-4,5-dihydro-thiazol-4-yl]-methanol], for which the “AC1.5 (the compound concentration at which the enzymatic activity is increased by 1.5 times)” value is 7 nM. For `CCOC(=O)CC[C@@H]1CSC(c2cc3cc(Cl)cc(NC4CCCC4)c3[nH]2)=N1` [Example 148, 3-[(R)-2-(5-chloro-7-cyclopentylamino-1H-indol-2-yl)-4,5-dihydro-thiazol-4-yl]propionic acid ethyl ester], the “AC1.5 (the compound concentration at which the enzymatic activity is increased by 1.5 times)” value is 12 nM.
